The values below come from paper PMC7784547 (Bioorganic Chemistry, 2021).

The term IC50 denotes the concentration that inhibits the measured activity by half.

Assay [1] deals with A/Puerto Rico/8/34 (H1N1) with the NA-H274Y mutation. The format is cell-based, influenza A virus. The conditions noted are these: read-out: IC50 ± SD, 274.
The test system of assay [2] is influenza A/PR/8/34 (H1N1) virus. Type of assay: cell-based.

Turning to protoporphyrin IX [PPIX], the concentration for half-maximal inhibition (IC50) in assay [1] was 1240 ± 530 nM. The “IC50 after passage of ten generations” value in assay [2] is recorded as 2.18 ± 0.71 µg/mL.
For the molecule `C=Cc1c(C)c2cc3nc(c4c5[nH]c(cc6nc(cc1[nH]2)C(C)=C6CC)c(C)c5C(=O)C4)[C@@H](CCC(=O)O)[C@@H]3C` [PPa, pyropheophorbide a, reference compound], the half-maximal inhibitory concentration (IC50) in assay [1] was 1050 ± 990 nM.
